In patent publication US20240342190A1, “METHODS FOR REDUCING ISCHEMIA-REPERFUSION INJURIES” (BioMimetix JV, LLC, priority 2023, published 2024):
“Also recorded” adds a separate entry of the source.

Key:
[1] = test system: young male Wistar rats subjected to 90 min of MCAO (ischemic stroke); assay: Experiment 3: duration of BMX-001 treatment and long-term stroke outcome in young male rats; format: in vivo, rat; details: for MAP: 10 minutes post-stroke; for Neurologic score: median±IQR; for Body weight: p=0.37; for Total infarct: measured at 28 days, p=0.46
Protocol: (§1) The rats were fasted overnight for glucose control. On the surgery day, they were anesthetized with 5% isoflurane in 30% oxygen balanced with nitrogen. The trachea was orally intubated, and both lungs were mechanically ventilated to maintain normocapnia. Isoflurane was reduced to 1.5% during the surgical procedure. A 22-gauge needle thermistor was percutaneously inserted beneath the temporalis muscle adjacent to the skull. The pericranial temperature was maintained at 37.0° C.±0.2° C. by a surface heat lamp. The tail artery was cannulated with PE 50 tubing (BD Intramedic™ Polyethylene Tubing, Sparks, MD, USA), and arterial blood pressure was continuously monitored. 50 IU of heparin was given via arterial line to prevent intra-arterial thrombosis. Arterial blood samples were collected pre, during, and after ischemia for blood gas, glucose, and hematocrit measurements.
(§2) Ischemic stroke was induced by transiently occluding the middle cerebral artery (MCAO) as previously reported.^23,24 Briefly, a midline cervical incision was made and the right common carotid artery […] was identified. The external and internal carotid arteries were dissected. […] The internal carotid artery (ICA) was dissected distally until the origin of the pterygopalatine artery was visualized. After surgical preparation, a 10 min interval was allowed for physiologic stabilization. […] The common carotid artery was re-opened, and a timer was started as the onset of cerebral ischemia.
(§3) After 90 min of MCAO, the filament was removed and a PE-10 tube (BD Intramedic™ Polyethylene Tubing, Sparks, MD, USA) was inserted into the ICA beyond the origin of the pterygopalatine artery. The vehicle or BMX-001 (30-50 μg/kg) solution (1 μl/g for both solutions, 250 μl for the 250 g rat) was slowly infused for 5 minutes via syringe pump. At the completion of intra-carotid infusion, the PE tube was removed and the ECA stump was permanently ligated. The tail artery catheter was removed and both the neck incision and tail incision were infiltrated with bupivacaine and closed with suture. Isoflurane was discontinued. Rats were disconnected from the ventilator when they attained spontaneous respiration and kept in a recovery cage. The tracheas were extubated after recovery of the righting reflex. They were in an O2 enriched environment (30% O2) for 1 h and then returned to the home cage.
(§4) Post-stroke neurologic deficits were assessed at day 7 and 28 using a standardized neurological scoring system.^27,28 General status, simple motor deficit, complex motor deficit, and sensory deficit were evaluated, including the ability of walking on a beam and climbing on the vertical screen. The total score each animal received was the sum of all four individual scores (0-48, 0=normal and 48=the worst score).
Upon the completion of functional tests, the animals were weighed, anesthetized with isoflurane, and decapitated. The brains were harvested, frozen at −20° C. in 2-methylbutane on dry ice, and stored in a −80° C. freezer. Serial quadruplicate 20-μm-thick coronal sections were cut using a Leica cryostat and mounted on the slides at 720-μm interval over the rostral-caudal extent of the brain. The sections were dried on a slide heater at 36° C., and stained with hematoxylin and eosin. A section from each […] interval was digitized with a video camera controlled by an image analyzer (MCID, the MicroComputer Imaging Device, Imaging Research Inc, St. Catharines, Ontario, Canada). […] With the observer blinded to the experimental condition, the following regions of interest (ROI) were outlined individually using an operator-controlled cursor, including non-infarcted ipsilateral cerebral cortex, non-infarcted ipsilateral subcortex, contralateral cerebral cortex, and contralateral subcortex. The area in each ROI (mm^2) was determined by automated counting of calibrated pixels and the volume (mm^3) was computed by the known interval between sections over the rostral-caudal extent of brain. […]

blood brain barrier = assay: Experiment 7: blood brain barrier permeability after intracarotid infusion (Evans blue content); details: non-stroke rats, vs vehicle
Protocol: 30 μg/kg of BMX-001 (n=4), or same amount of saline (n=4) or mannitol (n=4) was given to normal male Wistar rats through the carotid artery. The rats received 100 μl 2% Evans blue intravenous infusion 30 min later and then intracardially perfused using 100 ml normal saline at 30 min following infusion. Brains were harvested and the Evans blue content was measured spectrophotometrically.

[2] = Experiment 6: BMX-001 plasma and brain concentration measurement (LC/MS/MS); format: in vivo, rat
Protocol: Young male Wistar rats (n=4) were subjected to 90 min of MCAO and 30 μg/kg of BMX-001 intra-carotid infusion following reperfusion. Blood and brain samples were harvested at 30 min after BMX-001 infusion, stored in −80° C. freezer, and measured using Liquid chromatography-tandem-mass spectroscopy (LC/MS/MS) analysis. Brain tissue was homogenized in water (1 g in 2 mL water). Then, […] or […], two Zr-silica beads (2.5 mm), […] 1% HFBA (heptafluorobutyric acid) in 30% acetonitrile/water+BMX-001-d8 (int. std.,50 nM), and […] of chloroform/isopropanol (4/1, v/v) was added to polypropylene tube and vigorously agitated in FastPrep (Thermo Savant) at speed 6 for 45 s, followed by centrifugation at 16,000 rcf for 5 min at room temperature. The […] aliquot of organic (lower) layer was transferred to polypropylene tube and evaporated to dryness by gentle stream of nitrogen. The dry residue was reconstituted into […] of mobile phase A, and […] injected into LC/MS/MS system. The LC/MS/MS analysis was performed on Agilent 1200 HPLC-AB/SCIEX 5500 QTrap MS/MS instrument. LC column: Phenomenex Kinetex 4×3 mm, C18 guard cartridge at 35° C.; mobile phase A: 0.05% HFBA, 10% acetonitrile, water; mobile phase B: 0.05% HFBA in acetonitrile; elution gradient: 0-1 min 0-70% B, 1-2 min 70% B, 2-2.1 min 70-100% B, 2.1-2.6 min 100% B, 2.6-2.7 min 100-0% B; run time: 4 min. MS/MS transitions: BMX-001 (3×HFBA) at m/z 857.3/599.7. Calibration samples in 2.4 (LOQ)—300 nM brain tissue or 0.47 (LOQ)—30 nM plasma concentration range were prepared by adding known amounts of BMX-001 into blank brain homogenate or plasma, and analyzed alongside study samples as a single analytical batch.

[3] = test system: young female Wistar rats subjected to 90 min of MCAO (ischemic stroke); assay: Experiment 2: long-term stroke outcome in young female rats; format: in vivo, rat; details: for Neurologic score: median±IQR, p=0.04 vs vehicle
Protocol: as §1, §2, §3, §4
Upon the completion of functional tests, the animals were weighed, anesthetized with isoflurane, and decapitated. The brains were harvested, frozen at −20° C. in 2-methylbutane on dry ice, and stored in a −80° C. freezer. Serial quadruplicate 20-μm-thick coronal sections were cut using a Leica cryostat and mounted on the slides at 720-μm interval over the rostral-caudal extent of the brain. The sections were dried on a slide heater at 36° C., and stained with hematoxylin and eosin. […] The area in each ROI (mm^2) was determined by automated counting of calibrated pixels and the volume (mm^3) was computed by the known interval between sections over the rostral-caudal extent of brain. […]

[4] = printed 'on day 28 in BMX-001 group'
[5] = 30 μg/kg intracarotid after 90 min MCAO, 30 min after infusion, n=4

In the case of `CCCCOCC[n+]1ccccc1C1=C2C=CC3=[N+]2[Mn]24[n]5c1ccc5C(c1cccc[n+]1CCOCCCC)=C1C=CC(=[N+]12)C(c1cccc[n+]1CCOCCCC)=c1ccc([n]14)=C3c1cccc[n+]1CCOCCCC` [BMX-001, MnTnBuOE-2-PyP^5+], the MAP ([1]; group BMX-001 for 7 days) is reported as 67 ± 5 mmHg, the MAP ([1]; group BMX-001 for 28 days) is reported as 71 ± 6 mmHg and the “Neurological deficits (FIG. 3, Panel B), in words” value ([1]; both day 7 and day 28 post-stroke) is reported as “significantly improved”. The Neurologic score ([1]; day 7 post-stroke, 7 days of BMX-001 group) was 10±8, the Neurologic score ([1]; day 7 post-stroke, 28 days of BMX-001 group) was 11±8 and the Body weight ([1]; day 7 post-stroke, printed 'on day 7 in BMX-001 group') was 276±46 grams. For the same compound, the “Infarct volume (FIG. 3, Panel C), in words” value ([1]; day 28) was “no intra-group difference”, the Neurologic score ([1]; day 28 post-stroke, 7 days of BMX-001) was 6±5 and the Neurologic score ([1]; day 28 post-stroke, 28 days of BMX-001) was 6±4. It also gave a Total infarct ([1]; 7 days of BMX-001 group) of 131±66 mm^3, a Total infarct [1, 4] of 112±64 mm^3 and a Body weight [1, 4] of 280±33 grams. For the same compound, the “Evans blue content in brain / blood brain barrier permeability, in words” value (blood brain barrier) was “only somewhat higher Evans blue content; also recorded: did not affect the BBB”, the “BMX-001 content in contralateral brain hemisphere” value [2, 5] was 0.5 ± 0.3 nM and the “BMX-001 content in ipsilateral brain hemisphere” value [2, 5] was 7.4 ± 8.6 nM. The “BMX-001 content in plasma” value [2, 5] was 11.3 ± 1.2 nM, the “BMX-001 concentration at the site of brain injury relative to the contralateral hemisphere” value ([2]; direct intracarotid infusion) was 15 fold and the Neurologic score ([3]; 7 days post-stroke) was 11±7. For the same compound, the Neurologic score ([3]; 28 days post-stroke) was 7±6, the Infarct volume ([3]; 28 days post-stroke, p=0.38 vs vehicle) was 157.378 ±63.699 mm^3 and the “Neurologic score (FIG. 2, Panel A), in words” value ([3]; day 7 and day 28 compared to the vehicle group) was “better neurologic score”. The “Infarct volumes (FIG. 2, Panel B), in words” value ([3]; day 28, no intragroup difference was detected) was “smaller”.
